Measurements as given in PubChem BioAssay (NCI).
“And” between values parts separate entries of the source, which are not always exact repeats. Equal entries are not always repeated.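 Method: 48-hour compound exposure of cells in 96-well plates, five concentrations, linear interpolation of endpoints. GI50 is the concentration that inhibits growth by half. TGI is the concentration that stops growth completely.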

Experiments:
Assay in all cases: NCI tumour cell line growth inhibition, 48 h
DMS 273 small cell lung = system: DMS 273 small cell lung
LXFL 529 NSCLC = system: LXFL 529 NSCLC
RXF-631 renal = system: RXF-631 renal
XF 498 CNS = system: XF 498 CNS
BT-549 breast = system: BT-549 breast
MDA-N = system: MDA-N
NCI/ADR-RES ovarian = system: NCI/ADR-RES ovarian
T-47D breast = system: T-47D breast
P388 leukemia = system: P388 leukemia
P388/ADR leukemia = system: P388/ADR leukemia
SN12K1 renal = system: SN12K1 renal

SMILES	TGI (DMS 273 small cell lung)	TGI (LXFL 529 NSCLC)	TGI (RXF-631 renal)	TGI (XF 498 CNS)	TGI (BT-549 breast)	TGI (MDA-N)	TGI (NCI/ADR-RES ovarian)	TGI (T-47D breast)	GI50 (NCI/ADR-RES ovarian)	TGI (P388 leukemia)	TGI (P388/ADR leukemia)	TGI (SN12K1 renal)
CC1=C(C(=O)Nc2ccc(Cl)c(Cl)c2)C(c2ccco2)C(C(=O)Nc2ccc(Cl)c(Cl)c2)=C(C)N1	32.7 µM	24.2 µM	46 µM	7.94 µM								
CCOC(=O)c1cn(Cc2ccccc2)c(=O)n1Cc1ccccc1	> 100 µM	> 100 µM	> 100 µM	> 100 µM								
COc1ccc(/C=C2\CCC(C)(CN(C)C)C2=O)cc1 (stereo not given)	> 100 µM	> 100 µM	> 100 µM	> 100 µM								
COc1ccc(C(c2c(O)c3ccccc3n(C)c2=O)c2c(O)c3ccccc3n(C)c2=O)cc1	> 100 µM	> 100 µM	> 100 µM	> 100 µM								
CS(=O)(=O)Nc1ccc(Nc2c3ccccc3nc3ccccc23)cc1	14.3 µM	18.7 µM	16.9 µM	14.9 µM	39.4 µM	37 µM	41.8 µM	21 µM				
N#CCCN(c1ccc(-c2nnc(NC(=O)CNNC(=O)CC(=O)Nc3ccccc3)s2)cc1)S(=O)(=O)c1ccccc1	> 100 µM	> 100 µM	> 100 µM	> 100 µM								
Cc1cc(Cl)ccc1N=C1NC(=O)C(CC(=O)Nc2ccc(Cl)cc2Cl)S1 (stereo not given)	> 100 µM	> 100 µM	> 100 µM	> 100 µM								
CC12CCC[C@@](C)(C(=O)OC3OC(CO)C(O)C(O)C3O)[C@H]1CCC13CC4CC(OC4(CO)[C@H]1O)[C@@H]23 (stereo not given in full)	> 100 µM	> 100 µM	> 100 µM	> 100 µM								
NC1=N/C(=C2/CCNC(=O)c3[nH]c(Br)cc32)C(=O)N1	> 100 µM			> 100 µM	53.3 µM	> 43.3 µM	> 100 µM	51.8 µM	11.9 µM and > 43.3 µM	86.1 µM	> 100 µM	> 100 µM
COC(=O)C1=C(CO)C2C=CC1C2 (stereo not given)	> 100 µM	> 100 µM	> 100 µM	> 100 µM								
